Source: paper PMC5218480 (PLoS ONE, 2017)

Test system: MV-4-11 cells
Assay: Gene expression microarray analysis (Affymetrix PrimeView) and GSEA
Type: cell-based, human
Set-up: RFU PODN (11730768_x_at) / Fold change /veh PODN (11730768_x_at) / RFU LINC00158 (11744669_a_at) / Fold change /veh LINC00158 (11744669_a_at) / RFU DUSP10 (11751237_a_at) / Fold change /veh DUSP10 (11751237_a_at) / RFU ID3 (11757404_x_at) / Fold change /veh ID3 (11757404_x_at) / RFU PLEKHG5 (11737974_s_at) / Fold change /veh PLEKHG5 (11737974_s_at) / RFU LRRC4B (11730491_at) / Fold change /veh LRRC4B (11730491_at) / RFU GIMAP4 (11747438_a_at) / Fold change /veh GIMAP4 (11747438_a_at) / RFU KRT8 (11758183_x_at) / Fold change /veh KRT8 (11758183_x_at) / RFU CNN1 (11734310_a_at) / Fold change /veh CNN1 (11734310_a_at) / RFU VPS37D (11726825_at) / Fold change /veh VPS37D (11726825_at) / RFU C10orf10 (11716522_x_at) / Fold change /veh C10orf10 (11716522_x_at) / RFU KIR2DL2 /// KIR2DL4 /// KIR2DL5A /// KIR2DL5B /// KIR2DS1 /// KIR2DS2 /// KIR2DS3 /// KIR2DS4 /// KIR3DL3 /// KIR3DL3 /// KIR3DS1 (11738374_at) / Fold change /veh KIR2DL2 /// KIR2DL4 /// KIR2DL5A /// KIR2DL5B /// KIR2DS1 /// KIR2DS2 /// KIR2DS3 /// KIR2DS4 /// KIR3DL3 /// KIR3DL3 /// KIR3DS1 (11738374_at) / RFU C1QL1 (11718748_at) / Fold change /veh C1QL1 (11718748_at) / RFU TMPRSS4 (11747572_a_at) / Fold change /veh TMPRSS4 (11747572_a_at) / RFU HAMP (11756126_x_at) / Fold change /veh HAMP (11756126_x_at) / RFU RNFT2 (11725882_a_at) / Fold change /veh RNFT2 (11725882_a_at) / RFU NR4A2 (11747474_a_at) / Fold change /veh NR4A2 (11747474_a_at) / RFU ABCC12 (11746883_a_at) / Fold change /veh ABCC12 (11746883_a_at) / RFU TMEM136 (11760407_x_at) / Fold change /veh TMEM136 (11760407_x_at) / RFU CLDN22 /// WWC2 (11732394_at) / Fold change /veh CLDN22 /// WWC2 (11732394_at) / RFU HLA-DPB1 (11760878_x_at) / Fold change /veh HLA-DPB1 (11760878_x_at) / RFU SPINT1 (11716480_a_at) / Fold change /veh SPINT1 (11716480_a_at) / RFU GAP43 (11754022_s_at) / Fold change /veh GAP43 (11754022_s_at) / RFU A4GNT (11735810_at) / Fold change /veh A4GNT (11735810_at) / RFU PRB3 (11715151_x_at) / Fold change /veh PRB3 (11715151_x_at) / RFU TUBB4B (11761932_at) / Fold change /veh TUBB4B (11761932_at) / RFU CAPN14 (11732068_a_at) / Fold change /veh CAPN14 (11732068_a_at) / RFU TMCC2 (11721928_a_at) / Fold change /veh TMCC2 (11721928_a_at) / RFU IRGQ (11745062_a_at) / Fold change /veh IRGQ (11745062_a_at) / RFU FAM174B (11720279_a_at) / Fold change /veh FAM174B (11720279_a_at) / RFU TMPRSS4 (11748680_a_at) / Fold change /veh TMPRSS4 (11748680_a_at) / RFU FAM212B (11763350_a_at) / Fold change /veh FAM212B (11763350_a_at) / RFU PLEKHG5 (11743358_a_at) / Fold change /veh PLEKHG5 (11743358_a_at) / RFU ZSCAN30 (11745921_a_at) / Fold change /veh ZSCAN30 (11745921_a_at) / RFU CMKLR1 (11741424_a_at) / Fold change /veh CMKLR1 (11741424_a_at) / RFU LOC101060620 /// MAPK8IP1 (11723275_at) / Fold change /veh LOC101060620 /// MAPK8IP1 (11723275_at) / RFU SPTSSB (11747773_x_at) / Fold change /veh SPTSSB (11747773_x_at) / RFU PRSS12 (11739890_at) / Fold change /veh PRSS12 (11739890_at) / RFU BIN1 (11741810_x_at) / Fold change /veh BIN1 (11741810_x_at) / RFU WNT11 (11732464_a_at) / Fold change /veh WNT11 (11732464_a_at) / RFU C10orf10 (11716521_a_at) / Fold change /veh C10orf10 (11716521_a_at) / RFU C5orf56 (11738089_at) / Fold change /veh C5orf56 (11738089_at) / RFU CYB561 (11721691_x_at) / Fold change /veh CYB561 (11721691_x_at) / RFU ANKRD19P (11752326_a_at) / Fold change /veh ANKRD19P (11752326_a_at) / RFU OR2T12 /// OR2T33 /// OR2T8 (11738714_s_at) / Fold change /veh OR2T12 /// OR2T33 /// OR2T8 (11738714_s_at) / RFU VCAN (11748164_a_at) / Fold change /veh VCAN (11748164_a_at) / RFU JSRP1 (11732532_at) / Fold change /veh JSRP1 (11732532_at) / RFU KRTAP10-11 (11738290_x_at) / Fold change /veh KRTAP10-11 (11738290_x_at) / RFU MYO3A (11730013_a_at) / Fold change /veh MYO3A (11730013_a_at) / RFU EBF3 (11725865_a_at) / Fold change /veh EBF3 (11725865_a_at) / RFU CAMK2N1 (11719241_x_at) / Fold change /veh CAMK2N1 (11719241_x_at) / RFU C5orf56 (11738088_a_at) / Fold change /veh C5orf56 (11738088_a_at) / RFU OLFML3 (11715873_a_at) / Fold change /veh OLFML3 (11715873_a_at) / RFU LOC100653217 /// NTM (11731650_a_at) / Fold change /veh LOC100653217 /// NTM (11731650_a_at) / RFU MAPK11 (11762145_a_at) / Fold change /veh MAPK11 (11762145_a_at) / RFU FIZ1 (11724087_x_at) / Fold change /veh FIZ1 (11724087_x_at) / RFU OASL (11726364_x_at) / Fold change /veh OASL (11726364_x_at) / RFU SOX15 (11748057_x_at) / Fold change /veh SOX15 (11748057_x_at) / RFU CD79A (11719716_a_at) / Fold change /veh CD79A (11719716_a_at) / RFU HIST1H1D (11736915_at) / Fold change /veh HIST1H1D (11736915_at) / RFU CASKIN2 (11723855_a_at) / Fold change /veh CASKIN2 (11723855_a_at) / RFU LOC730098 (11760151_x_at) / Fold change /veh LOC730098 (11760151_x_at) / RFU OR4N2 (11742367_at) / Fold change /veh OR4N2 (11742367_at) / RFU PRRT2 (11749266_a_at) / Fold change /veh PRRT2 (11749266_a_at) / RFU SNX32 (11753110_a_at) / Fold change /veh SNX32 (11753110_a_at) / RFU CDHR5 (11726645_a_at) / Fold change /veh CDHR5 (11726645_a_at) / RFU RCAN1 (11760418_a_at) / Fold change /veh RCAN1 (11760418_a_at) / RFU FAM167A (11723789_a_at) / Fold change /veh FAM167A (11723789_a_at) / RFU FAM26E (11764081_at) / Fold change /veh FAM26E (11764081_at) / RFU ISYNA1 (11749810_s_at) / Fold change /veh ISYNA1 (11749810_s_at) / RFU ACY1 (11761880_at) / Fold change /veh ACY1 (11761880_at) / RFU 11764098_at / Fold change /veh 11764098_at / RFU SAMD14 (11745864_x_at) / Fold change /veh SAMD14 (11745864_x_at) / RFU NPB (11741838_a_at) / Fold change /veh NPB (11741838_a_at) / RFU TMPRSS6 (11731388_a_at) / Fold change /veh TMPRSS6 (11731388_a_at) / RFU KRTAP10-2 (11738614_at) / Fold change /veh KRTAP10-2 (11738614_at) / RFU ARHGAP8 /// PRR5-ARHGAP8 (11727945_x_at) / Fold change /veh ARHGAP8 /// PRR5-ARHGAP8 (11727945_x_at) / RFU KRTAP5-7 /// NADSYN1 (11734609_at) / Fold change /veh KRTAP5-7 /// NADSYN1 (11734609_at) / RFU RASL12 (11751679_a_at) / Fold change /veh RASL12 (11751679_a_at) / RFU CDKN2B (11736163_a_at) / Fold change /veh CDKN2B (11736163_a_at) / RFU PRF1 (11729649_at) / Fold change /veh PRF1 (11729649_at) / RFU, ZNF638 /// ZNF638-IT1 / Fold change vs veh, ZNF638 /// ZNF638-IT1 / RFU, PANK3 / Fold change vs veh, PANK3 / RFU, SH3YL1 / Fold change vs veh, SH3YL1 / RFU, ZEB2 / Fold change vs veh, ZEB2 / RFU, NRIP1 / Fold change vs veh, NRIP1 / RFU, PTTG1IP / Fold change vs veh, PTTG1IP / RFU, CAPN2 / Fold change vs veh, CAPN2 / RFU, MED14 / Fold change vs veh, MED14 / RFU, SNORA58 / Fold change vs veh, SNORA58 / RFU, C1orf63 / Fold change vs veh, C1orf63 / RFU, LRRFIP1 / Fold change vs veh, LRRFIP1 / RFU, NDUFAF7 / Fold change vs veh, NDUFAF7 / RFU, SLC12A2 / Fold change vs veh, SLC12A2 / RFU, IBTK / Fold change vs veh, IBTK / RFU, ESF1 / Fold change vs veh, ESF1 / Fold change vs veh, TMEM50B / RFU, TAOK1 / Fold change vs veh, TAOK1 / RFU, ACBD3 / Fold change vs veh, ACBD3 / RFU, TMA16 / Fold change vs veh, TMA16 / RFU, RWDD3 / Fold change vs veh, RWDD3 / RFU, BCAT1 / Fold change vs veh, BCAT1 / RFU, EDEM3 / Fold change vs veh, EDEM3 / RFU, TMEM33 / Fold change vs veh, TMEM33 / RFU, WDR75 / Fold change vs veh, WDR75 / RFU, AHCTF1 / Fold change vs veh, AHCTF1 / RFU, TFRC / Fold change vs veh, TFRC / RFU, ZDHHC17 / Fold change vs veh, ZDHHC17 / RFU, NOM1 / Fold change vs veh, NOM1 / RFU, ARL8B / Fold change vs veh, ARL8B / RFU, ZBTB11 / Fold change vs veh, ZBTB11 / RFU, TAMM41 / Fold change vs veh, TAMM41 / RFU, KIAA1704 /// LOC100996395 / Fold change vs veh, KIAA1704 /// LOC100996395 / RFU, ING1 / Fold change vs veh, ING1 / RFU, TRMT61B / Fold change vs veh, TRMT61B / RFU, FUBP3 / Fold change vs veh, FUBP3 / RFU, TP53 / Fold change vs veh, TP53 / RFU, TNKS2 / Fold change vs veh, TNKS2 / RFU, ZFP14 / Fold change vs veh, ZFP14 / RFU, ACTR2 / Fold change vs veh, ACTR2 / RFU, PPP3R1 / Fold change vs veh, PPP3R1 / RFU, PIK3R1 / Fold change vs veh, PIK3R1 / RFU, HNRNPA1 / Fold change vs veh, HNRNPA1 / RFU, RNF170 / Fold change vs veh, RNF170 / RFU, ZNF28 / Fold change vs veh, ZNF28 / RFU, RNGTT / Fold change vs veh, RNGTT / RFU, OGT / Fold change vs veh, OGT / RFU, BRD1 / Fold change vs veh, BRD1 / RFU, MARS / Fold change vs veh, MARS / RFU, ZNF655 / Fold change vs veh, ZNF655 / RFU, FAHD1 / Fold change vs veh, FAHD1 / RFU, BDP1 / Fold change vs veh, BDP1 / RFU, LRRCC1 / Fold change vs veh, LRRCC1 / RFU, ARID1A / Fold change vs veh, ARID1A / RFU, ZNF146 / Fold change vs veh, ZNF146 / RFU, ZNF330 / Fold change vs veh, ZNF330 / RFU, GPN3 / Fold change vs veh, GPN3 / RFU, C9orf123 / Fold change vs veh, C9orf123 / RFU, N4BP2L2 / Fold change vs veh, N4BP2L2 / RFU, ARFIP1 / Fold change vs veh, ARFIP1 / RFU, FAM179B / Fold change vs veh, FAM179B / RFU, BCL10 / Fold change vs veh, BCL10 / RFU, UHRF1BP1L / Fold change vs veh, UHRF1BP1L / RFU, BET1 / Fold change vs veh, BET1 / RFU, CNOT2 / Fold change vs veh, CNOT2 / RFU, ZNF268 / Fold change vs veh, ZNF268 / Fold change vs veh, ZNF507 / RFU, DGCR2 / Fold change vs veh, DGCR2 / RFU, WDSUB1 / Fold change vs veh, WDSUB1 / Fold change vs veh, HSP90B1 /// MIR3652 / RFU, ADSS / Fold change vs veh, ADSS / RFU, GK / Fold change vs veh, GK / RFU, ZNF148 / Fold change vs veh, ZNF148 / RFU, TAF9 / Fold change vs veh, TAF9 / RFU, SLC1A5 / Fold change vs veh, SLC1A5 / RFU, SLMO2 / Fold change vs veh, SLMO2 / RFU, ABCC4 / Fold change vs veh, ABCC4 / RFU, LOC101060439 /// RAP1B / Fold change vs veh, LOC101060439 /// RAP1B / RFU, RFX7 / Fold change vs veh, RFX7 / RFU, GTPBP10 / Fold change vs veh, GTPBP10 / RFU, CNEP1R1 / Fold change vs veh, CNEP1R1 / RFU, BIVM-ERCC5 /// ERCC5 / Fold change vs veh, BIVM-ERCC5 /// ERCC5 / RFU, ILF3 / Fold change vs veh, ILF3 / RFU 11762660_at / Fold change /veh 11762660_at / RFU VCAN (11757783_s_at) / Fold change /veh VCAN (11757783_s_at) / RFU DDX43 (11728927_at) / Fold change /veh DDX43 (11728927_at) / RFU KRT8 (11758188_x_at) / Fold change /veh KRT8 (11758188_x_at) / RFU NKD1 (11759106_at) / Fold change /veh NKD1 (11759106_at) / RFU SRD5A1 (11742802_a_at) / Fold change /veh SRD5A1 (11742802_a_at) / RFU TPSAB1 /// TPSB2 (11721975_s_at) / Fold change /veh TPSAB1 /// TPSB2 (11721975_s_at) / RFU GSTM3 (11746129_a_at) / Fold change /veh GSTM3 (11746129_a_at) / RFU IL23R (11737362_x_at) / Fold change /veh IL23R (11737362_x_at) / RFU TMEM51 (11727254_a_at) / Fold change /veh TMEM51 (11727254_a_at) / RFU PIWIL2 (11732686_x_at) / Fold change /veh PIWIL2 (11732686_x_at) / RFU ORM1 (11744905_x_at) / Fold change /veh ORM1 (11744905_x_at) / RFU CCDC152 (11743942_at) / Fold change /veh CCDC152 (11743942_at) / RFU ECM1 (11717891_a_at) / Fold change /veh ECM1 (11717891_a_at) / RFU IL23R (11748794_a_at) / Fold change /veh IL23R (11748794_a_at) / RFU TNFAIP8L3 (11732012_x_at) / Fold change /veh TNFAIP8L3 (11732012_x_at) / RFU MBOAT4 (11741988_at) / Fold change /veh MBOAT4 (11741988_at) / RFU 11764193_at / Fold change /veh 11764193_at / RFU TMEM53 (11763286_at) / Fold change /veh TMEM53 (11763286_at) / RFU MAGEB2 (11727129_at) / Fold change /veh MAGEB2 (11727129_at) / RFU TMEM200A (11744735_a_at) / Fold change /veh TMEM200A (11744735_a_at) / RFU CCDC152 (11751479_a_at) / Fold change /veh CCDC152 (11751479_a_at) / RFU FAM211A (11726209_a_at) / Fold change /veh FAM211A (11726209_a_at) / RFU RGS16 (11746705_a_at) / Fold change /veh RGS16 (11746705_a_at) / RFU VCAN (11755009_s_at) / Fold change /veh VCAN (11755009_s_at) / RFU RHOB (11743442_s_at) / Fold change /veh RHOB (11743442_s_at) / RFU RGS16 (11720943_a_at) / Fold change /veh RGS16 (11720943_a_at) / RFU RGS16 (11720944_at) / Fold change /veh RGS16 (11720944_at) / RFU, VPS4B / Fold change vs veh, VPS4B / RFU, CREB1 / Fold change vs veh, CREB1 / RFU, DNAJC13 / Fold change vs veh, DNAJC13 / RFU, GNAQ / Fold change vs veh, GNAQ / RFU, CDK5R1 / Fold change vs veh, CDK5R1 / RFU, ZRANB3 / Fold change vs veh, ZRANB3 / RFU, CUL4A / Fold change vs veh, CUL4A / RFU, CCNY / Fold change vs veh, CCNY / RFU, UFL1 / Fold change vs veh, UFL1 / RFU, COG3 / Fold change vs veh, COG3 / RFU, DIAPH2 / Fold change vs veh, DIAPH2 / RFU, SKA2 / Fold change vs veh, SKA2 / RFU, AFF3 / Fold change vs veh, AFF3 / RFU, LMF1 / Fold change vs veh, LMF1 / RFU, IPO11 / Fold change vs veh, IPO11 / RFU, DFFB / Fold change vs veh, DFFB / RFU, FOXP1 / Fold change vs veh, FOXP1 / RFU, CARD8 / Fold change vs veh, CARD8 / RFU, STRN3 / Fold change vs veh, STRN3 / RFU, ADK / Fold change vs veh, ADK / RFU, RASSF2 / Fold change vs veh, RASSF2 / RFU, WIPF1 / Fold change vs veh, WIPF1 / RFU, LARP1B / Fold change vs veh, LARP1B / RFU, RASA1 / Fold change vs veh, RASA1 / RFU, RB1 / Fold change vs veh, RB1 / RFU, PPFIA1 / Fold change vs veh, PPFIA1 / RFU, MAT2A / Fold change vs veh, MAT2A / RFU, CCT5 / Fold change vs veh, CCT5 / RFU, WDR92 / Fold change vs veh, WDR92 / RFU, CUX1 / Fold change vs veh, CUX1 / RFU, TTC7A / Fold change vs veh, TTC7A / RFU, TMEM135 / Fold change vs veh, TMEM135 / RFU, DEPTOR / Fold change vs veh, DEPTOR / RFU, CPM / Fold change vs veh, CPM / RFU, DNAJB6 / Fold change vs veh, DNAJB6 / RFU, CACNA2D3 / Fold change vs veh, CACNA2D3 / RFU, DTX4 / Fold change vs veh, DTX4 / RFU, TFCP2 / Fold change vs veh, TFCP2 / RFU, GMCL1 /// GMCL1P1 / Fold change vs veh, GMCL1 /// GMCL1P1 / RFU, AEBP2 / Fold change vs veh, AEBP2 / RFU, SNHG1 /// SNORD22 /// SNORD25 /// SNORD26 /// SNORD27 /// SNORD28 /// SNORD29 /// SNORD31 / Fold change vs veh, SNHG1 /// SNORD22 /// SNORD25 /// SNORD26 /// SNORD27 /// SNORD28 /// SNORD29 /// SNORD31 / Fold change (Aza/veh), C12orf56 (ProbeSet 11735607_a_at) / Fold change (ACY-1035/veh), C12orf56 (ProbeSet 11735607_a_at) / Fold change (Aza/veh), FGFR1OP (ProbeSet 11751329_s_at) / Fold change (ACY-1035/veh), FGFR1OP (ProbeSet 11751329_s_at) / Fold change (Aza/veh), VPS36 (ProbeSet 11739960_a_at) / Fold change (ACY-1035/veh), VPS36 (ProbeSet 11739960_a_at) / RFU SYPL1 (11715823_x_at) / Fold change /veh SYPL1 (11715823_x_at) / RFU IGFBP7 (11715501_s_at) / Fold change /veh IGFBP7 (11715501_s_at) / RFU REEP3 (11722064_at) / Fold change /veh REEP3 (11722064_at) / RFU IGLL1 (11728026_x_at) / Fold change /veh IGLL1 (11728026_x_at): dose or concentration left out as unconfirmed
Conditions: MV-4-11 cells, 48 hours

Nc1ncn([C@@H]2O[C@H](CO)[C@@H](O)[C@H]2O)c(=O)n1 [azacitidine]
RFU KRT8 (11758183_x_at): 20.69 RFU
